The target of one assay is AT2 Receptor (AT2R) (Homo sapiens (Human), UniProt P50052). The assay is described as follows: Measurement of inhibitory activity on AT2 receptor (Tag-lite HTRF, Tb-labeled AT2R cells, angiotensin receptor red agonist). The following applies: 1 h room temperature. In kind it is binding.
The target in another assay is AT1 Receptor (AT1R) (Homo sapiens (Human), UniProt P30556). In words: Measurement of inhibitory activity on AT1 receptor (Tag-lite HTRF, Tb-labeled AT1R cells, angiotensin receptor red agonist). The assay is classed as binding. The note with it: 1 h room temperature. On the procedure:
Measurement of Inhibitory Activity on AT1 Receptor ([…])/AT2 Receptor (AT2R)
Through the following steps, the inhibitory activity of the compound on AT1R/AT2R (IC50 value) was determined:
1) An appropriate amount of 1×TLB (Tag-lite Buffer) was prepared and well mixed for use.
2) The compound was diluted by 10 times with ddH2O or DMSO. The compound was then dilute to 4 times of the working concentration with 1×TLB and mixed well for use.
3) 8600 nM Tag-lite angiotensin receptor red agonist was diluted to 12 nM (4×Kd) with 1×TLB.
4) 5 ml 1×TLB was taken into a 15 ml centrifuge tube.
5) After thawing 1 tube of Tb-labeled AT1R/AT2R cells in a 37° C. water bath, the cells were quickly transferred to the 1×TLB in step 4), mixed gently, and centrifuged at 1200 g for 5 minutes at room temperature.
6) The supernatant was aspirated gently, and the cells were resuspended and mixed in 2.7 ml 1×TLB, and then placed at room temperature until use.
7) 10 μl cells were added to all test wells, and 5 μl 4× working solution of the compound from step 2) was added to the corresponding test wells. 5 μl 4× Tag-lite angiotensin receptor red agonist well diluted in step 3) was added to all test wells.
8) After leaving the reaction plate at room temperature for 1 h, data were measured and analyzed using Envision HTRF Reader, and the half inhibitory concentration (IC50) of the compound on AT1R/AT2R was calculated with the GraphPad Prism four-parameter equation.

AT1 Receptor (AT1R), sequence (P30556 whole entry): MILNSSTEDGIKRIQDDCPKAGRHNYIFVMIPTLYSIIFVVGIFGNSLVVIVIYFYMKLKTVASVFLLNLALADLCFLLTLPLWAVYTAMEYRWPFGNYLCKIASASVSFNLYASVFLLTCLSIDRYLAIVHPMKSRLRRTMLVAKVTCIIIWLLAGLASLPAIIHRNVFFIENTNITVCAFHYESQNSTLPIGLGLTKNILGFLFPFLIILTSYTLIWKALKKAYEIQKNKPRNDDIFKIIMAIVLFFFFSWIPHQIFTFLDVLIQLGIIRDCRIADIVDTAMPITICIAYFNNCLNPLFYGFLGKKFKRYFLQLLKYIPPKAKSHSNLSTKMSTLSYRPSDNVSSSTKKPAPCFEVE
AT2 Receptor (AT2R), sequence (P50052 whole entry): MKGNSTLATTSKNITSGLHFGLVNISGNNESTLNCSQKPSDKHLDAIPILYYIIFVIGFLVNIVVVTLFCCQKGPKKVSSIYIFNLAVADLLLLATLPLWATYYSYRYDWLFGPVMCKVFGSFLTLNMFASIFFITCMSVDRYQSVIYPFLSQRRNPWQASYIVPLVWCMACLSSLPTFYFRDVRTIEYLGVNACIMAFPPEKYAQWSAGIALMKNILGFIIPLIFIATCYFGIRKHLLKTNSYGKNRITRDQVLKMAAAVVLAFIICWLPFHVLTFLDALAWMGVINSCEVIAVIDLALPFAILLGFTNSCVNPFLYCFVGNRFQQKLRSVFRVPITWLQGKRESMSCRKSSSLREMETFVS

In the case of `O=C(O)[C@@H]1[C@H]2CC[C@@H](CN1C(=O)N(c1ccccc1)c1ccccc1)N2C(=O)OCc1ccccc1` [Compound C37, (1R,2S,5S)-8-((benzyloxy)carbonyl)-3-(diphenylcarbamoyl)-3,8-diazabicyclo [3.2.1]octane-2-carboxylic acid], the IC50 is 55.3 nM at AT2 Receptor (AT2R) and greater than 10000 nM on AT1 Receptor (AT1R).
Taken in the same sequence, the figures for `CN(Cc1ccccc1Cl)C(=O)N1[C@H]2CC[C@@H]1[C@@H](C(=O)O)N(C(=O)N(c1ccccc1)c1ccccc1)C2` [Compound C149, (1R,2S,5S)-8-((2-chlorobenzyl) (methyl)carbamoyl)-3-(diphenylcarbamoyl)-3,8-diazabicyclo [3.2.1]octane-2-carboxylic acid] were 16.6 nM and greater than 10000 nM.
In the same order, the values of `O=C(O)[C@@H]1[C@H]2CC[C@@H](CN1C(=O)N(c1ccccc1)c1ccccc1)N2C(=O)N(c1ccccc1)c1ccccc1` [Compound C5, (1R,2S,5S)-3,8-bis (diphenylcarbamoyl)-3,8-diazabicyclo [3.2.1]octane-2-carboxylic acid] are 15.3 nM and greater than 10000 nM.
Regarding `Cc1ccc(CN(C)C(=O)N2[C@H]3CC[C@@H]2[C@@H](C(=O)O)N(C(=O)N(c2ccccc2)c2ccccc2)C3)cc1` [Compound C162, (1R,2S,5S)-3-(diphenylcarbamoyl)-8-(methyl(4-methylbenzyl)carbamoyl)-3,8-diazabicyclo [3.2.1]octane-2-carboxylic acid], the IC50 on AT2 Receptor (AT2R) was 4.04 nM; on AT1 Receptor (AT1R), greater than 10000 nM.
In the same order, the values of `CN(Cc1ccc(Cl)cc1)C(=O)N1[C@H]2CC[C@@H]1[C@@H](C(=O)O)N(C(=O)N(c1ccccc1)c1ccccc1)C2` [Compound C150, (1R,2S,5S)-8-((4-chlorobenzyl) (methyl)carbamoyl)-3-(diphenylcarbamoyl)-3,8-diazabicyclo [3.2.1]octane-2-carboxylic acid] are 9.82 nM and greater than 10000 nM.
In the same order, the values of `COc1ccc(CN(C)C(=O)N2[C@H]3CC[C@@H]2[C@@H](C(=O)O)N(C(=O)N(c2ccccc2)c2ccccc2)C3)cc1` [Compound C166] are 4.42 nM and greater than 10000 nM.
In the same order, the values of `O=C(O)[C@@H]1[C@H]2CC[C@@H](CN1C(=O)C(c1ccccc1)c1ccccc1)N2C(=O)OCc1ccccc1` [Compound C34, (1R,2S,5S)-8-((benzyloxy)carbonyl)-3-(2,2-diphenylacetyl)-3,8-diazabicyclo[3.2.1]octane-2-carboxylic acid] are 35.2 nM and greater than 10000 nM.
In the case of `O=C(O)[C@@H]1[C@H]2CC[C@@H](CN1C(=O)C(c1ccccc1)c1ccccc1)N2C(=O)C(c1ccccc1)c1ccccc1` [Compound C1, (1R,2S,5S)-3,8-bis(2,2-diphenylacetyl)-3,8-diazabicyclo[3.2.1]octane-2-carboxylic acid], the IC50 at AT2 Receptor (AT2R) was 6.67 nM; on AT1 Receptor (AT1R), greater than 10000 nM.
Taken in the same sequence, the figures for `O=C(O)[C@@H]1[C@H]2CC[C@@H](CN1C(=O)N(c1ccccc1)c1ccccc1)N2C(=O)C(c1ccccc1)c1ccccc1` [Compound C12, (1R,2S,5S)-8-(2,2-diphenylacetyl)-3-(diphenylcarbamoyl)-3,8-diazabicyclo [3.2.1]octane-2-carboxylic acid] were 17.1 nM and greater than 10000 nM.
For the compound `O=C(O)[C@H]1[C@@H]2CC[C@H](CN1C(=O)N1c3ccccc3C=Cc3ccccc31)N2C(=O)C(c1ccccc1)c1ccccc1` [Compound C71, (1S,2R,5R)-3-(5H-dibenzo[bf]azepine-5-carbonyl)-8-(2,2-diphenylacetyl)-3,8-diazabicyclo[3. 2.1]octane-2-carboxylic acid], the IC50 on AT2 Receptor (AT2R) is 50.4 nM; at AT1 Receptor (AT1R) it was greater than 10000 nM.
Regarding `O=C(O)[C@@H]1C2CCC(CC2OCc2ccccc2)N1C(=O)C(c1ccccc1)c1ccccc1` (stereo in doubt) [Compound C283, (1S,3S,4S)-5-(benzyloxy)-2-(2,2-diphenylacetyl)-2-azabicyclo[2.2.2]octane-3-carboxylic acid], the IC50 at AT2 Receptor (AT2R) was 46.3 nM; at AT1 Receptor (AT1R), greater than 10000 nM.
In the case of `CN(Cc1ccccn1)C(=O)N1[C@H]2CC[C@@H]1[C@@H](C(=O)O)N(C(=O)C(c1ccccc1)c1ccccc1)C2` [Compound C123, (1R,2S,5S)-3-(2,2-diphenylacetyl)-8-(methyl(pyridine-2-ylmethyl)carbamoyl)-3,8-diazabicyclo [3.2.1]octane-2-carboxylic acid], the values for the IC50 at AT2 Receptor (AT2R) and at AT1 Receptor (AT1R) were 11.7 nM and greater than 10000 nM, respectively.
